Measured values published in patent US20180000085A1, “USE OF PICOLINAMIDE COMPOUNDS WITH FUNGICIDAL ACTIVITY” (DOW AGROSCIENCES LLC, priority 2014, published 2018).

Key:
[1] = test system: Zymoseptoria tritici; test: Leaf blotch of wheat (SEPTTR) disease control on wheat seedlings; type: in vivo; parameters: key to SEPTTR 1DP, HV activity at 100 ppm (% control rating) / SEPTTR 3DC, HV activity at 100 ppm (% control rating) / SEPTTR disease control, 1DP / SEPTTR disease control, 3DC / SEPTTR 1DP disease control rating, HV activity / SEPTTR 3DC disease control rating, HV activity / SEPTTR 3DC, LV activity at 125.1 g/H (% Control rating) / SEPTTR 1DP, LV activity at 125.1 g/H (% Control rating) / SEPTTR 1DP disease control rating, LV activity at 125.1 g/H / SEPTTR 3DC disease control rating, LV activity at 125.1 g/H / SEPTTR 3DC disease control rating, HV activity at 100 ppm / SEPTTR 1DP disease control rating, HV activity at 100 ppm / HV activity at 100 ppm SEPTTR 3DC (disease control rating) / HV activity at 100 ppm SEPTTR 1DP (disease control rating) / LV activity at 125.1 g/H SEPTTR 1DP (disease control rating) / LV activity at 125.1 g/H SEPTTR 3DC (disease control rating): A: > 80; B: ≤ 80; C: Not Tested; D: No Activity Observed in the Reported Assay; conditions: for SEPTTR 1DP disease control rating, HV activity / SEPTTR 3DC disease control rating, HV activity: HV application at 100 ppm; for HV activity at 100 ppm SEPTTR 1DP (disease control rating) / HV activity at 100 ppm SEPTTR 3DC (disease control rating): HV application
[2] = test system: Puccinia triticina; test: Wheat brown rust (PUCCRT) disease control on wheat seedlings; type: in vivo; parameters: key to PUCCRT 3DC, HV activity at 100 ppm (% control rating) / PUCCRT disease control, 3DC / PUCCRT 1DP disease control rating, HV activity / PUCCRT 3DC disease control rating, HV activity / PUCCRT 3DC, LV activity at 125.1 g/H (% Control rating) / PUCCRT 1DP, LV activity at 125.1 g/H (% Control rating) / PUCCRT 3DC disease control rating, LV activity at 125.1 g/H / PUCCRT 1DP disease control rating, LV activity at 125.1 g/H / PUCCRT 3DC disease control rating, HV activity at 100 ppm / PUCCRT 1DP disease control rating, HV activity at 100 ppm / HV activity at 100 ppm PUCCRT 3DC (disease control rating) / LV activity at 125.1 g/H PUCCRT 1DP (disease control rating) / LV activity at 125.1 g/H PUCCRT 3DC (disease control rating): A: > 80; B: ≤ 80; C: Not Tested; D: No Activity Observed in the Reported Assay; conditions: for PUCCRT 1DP disease control rating, HV activity / PUCCRT 3DC disease control rating, HV activity: HV application at 100 ppm; for HV activity at 100 ppm PUCCRT 1DP (disease control rating) / HV activity at 100 ppm PUCCRT 3DC (disease control rating): HV application
[3] = high volume application, 100 ppm, 1 day protectant
[4] = high volume application, 100 ppm, 3 day curative
[5] = HV activity at 100 ppm, 1 Day Protectant, wheat
[6] = HV activity at 100 ppm, 3 Day Curative, wheat
[7] = 1 Day Protectant, wheat leaf blotch
[8] = 3 Day Curative, wheat leaf blotch
[9] = high volume application, 100 ppm, 1DP
[10] = high volume application, 100 ppm, 3DC
[11] = 1 Day Protectant, wheat brown rust
[12] = 3 Day Curative, wheat brown rust
[13] = 100 ppm, 1 Day Protectant, wheat leaf blotch
[14] = 100 ppm, 3 Day Curative, wheat leaf blotch
[15] = 100 ppm, 1 Day Protectant, wheat brown rust
[16] = 100 ppm, 3 Day Curative, wheat brown rust
[17] = low volume application, 125.1 g/H, 1 Day Protectant
[18] = low volume application, 125.1 g/H, 3 Day Curative
[19] = low volume application, 125.1 g/H, 1 day protectant
[20] = low volume application, 125.1 g/H, 3 day curative

SMILES: COc1cc(O[C@@H]([C@H](C)OC(=O)[C@H](C)NC(=O)c2nccc(OC)c2OC(C)=O)C(C)(C)C)ccc1Cl [Cmpd 1070]
- LV activity at 125.1 g/H SEPTTR 1DP (disease control rating) ([1]; low volume application, 125.1 g/H, 1 Day Protectant, wheat leaf blotch): B (≤ 80)
- LV activity at 125.1 g/H SEPTTR 3DC (disease control rating) ([1]; low volume application, 125.1 g/H, 3 Day Curative, wheat leaf blotch): D
- LV activity at 125.1 g/H PUCCRT 1DP (disease control rating) ([2]; low volume application, 125.1 g/H, 1 Day Protectant, wheat brown rust): A (> 80)
- LV activity at 125.1 g/H PUCCRT 3DC (disease control rating) ([2]; low volume application, 125.1 g/H, 3 Day Curative, wheat brown rust): A (> 80)

SMILES: CC(NC(=O)c1nccc(Br)c1O)C(=O)OC(C)C(Oc1ccccc1)C(C)C (stereo not shown) [Cmpd 1025]
- SEPTTR 1DP disease control rating, HV activity at 100 ppm [1, 3]: D
- SEPTTR 3DC disease control rating, HV activity at 100 ppm [1, 4]: B (≤ 80)
- PUCCRT 1DP disease control rating, HV activity at 100 ppm [2, 3]: A (> 80)
- PUCCRT 3DC disease control rating, HV activity at 100 ppm [2, 4]: B (≤ 80)

SMILES: CCCOC(CC)C(Oc1ccccc1)C(C)OC(=O)C(NC(=O)c1nccc(OC)c1O)C(C)C (stereo not shown) [Cmpd 290]
- SEPTTR disease control, 1DP [1, 5]: B (≤ 80)
- SEPTTR disease control, 3DC [1, 6]: B (≤ 80)
- SEPTTR 1DP disease control rating, HV activity [1, 7]: B (≤ 80)
- SEPTTR 3DC disease control rating, HV activity [1, 8]: B (≤ 80)
- SEPTTR 1DP, HV activity at 100 ppm (% control rating) [1, 9]: B (≤ 80)
- SEPTTR 3DC, HV activity at 100 ppm (% control rating) [1, 10]: B (≤ 80)
- PUCCRT disease control, 1DP [2, 5]: A (> 80)
- PUCCRT disease control, 3DC [2, 6]: B (≤ 80)
- PUCCRT 1DP disease control rating, HV activity [2, 11]: A (> 80)
- PUCCRT 3DC disease control rating, HV activity [2, 12]: B (≤ 80)
- PUCCRT 1DP, HV activity at 100 ppm (% control rating) [2, 9]: A (> 80)
- PUCCRT 3DC, HV activity at 100 ppm (% control rating) [2, 10]: B (≤ 80)

SMILES: COc1ccnc(C(=O)NC(C)C(=O)OC(C)(C)C(Oc2ccccc2)C(C)C)c1O (stereo not shown) [Cmpd 831]
- SEPTTR 1DP disease control rating, HV activity at 100 ppm [1, 3]: D
- SEPTTR 3DC disease control rating, HV activity at 100 ppm [1, 4]: D
- PUCCRT 1DP disease control rating, HV activity at 100 ppm [2, 3]: B (≤ 80)
- PUCCRT 3DC disease control rating, HV activity at 100 ppm [2, 4]: D

SMILES: COc1ccnc(C(=O)N[C@@H](C)C(=O)O[C@@H](C)[C@H](OCC2CC2)c2ccccc2)c1O [Cmpd 319]
- SEPTTR 1DP disease control rating, HV activity [1, 7]: A (> 80)
- SEPTTR 3DC disease control rating, HV activity [1, 8]: A (> 80)
- PUCCRT 1DP disease control rating, HV activity [2, 11]: A (> 80)
- PUCCRT 3DC disease control rating, HV activity [2, 12]: B (≤ 80)

SMILES: CC(C)C[C@@H](Oc1cccc(Cl)c1)[C@H](C)OC(=O)[C@H](C)NC(=O)c1ncccc1O [Cmpd 1037]
- HV activity at 100 ppm SEPTTR 1DP (disease control rating) [1, 13]: A (> 80)
- HV activity at 100 ppm SEPTTR 3DC (disease control rating) [1, 14]: B (≤ 80)
- HV activity at 100 ppm PUCCRT 1DP (disease control rating) [2, 15]: A (> 80)
- HV activity at 100 ppm PUCCRT 3DC (disease control rating) [2, 16]: A (> 80)

SMILES: COc1ccnc(C(=O)NC(C)C(=O)OC(C)C(OCC2CC2)c2ccccc2)c1O (stereo not shown) [Cmpd 825]
- SEPTTR 1DP disease control rating, HV activity at 100 ppm [1, 3]: B (≤ 80)
- SEPTTR 3DC disease control rating, HV activity at 100 ppm [1, 4]: B (≤ 80)
- PUCCRT 1DP disease control rating, HV activity at 100 ppm [2, 3]: A (> 80)
- PUCCRT 3DC disease control rating, HV activity at 100 ppm [2, 4]: A (> 80)

SMILES: COc1ccnc(C(=O)NC(C)C(=O)OC(C)COCC2CC2)c1OCOC(=O)C(C)C (stereo not shown) [Cmpd 528]
- SEPTTR 1DP, LV activity at 125.1 g/H (% Control rating) [1, 17]: D
- SEPTTR 3DC, LV activity at 125.1 g/H (% Control rating) [1, 18]: B (≤ 80)
- PUCCRT 1DP, LV activity at 125.1 g/H (% Control rating) [2, 17]: D
- PUCCRT 3DC, LV activity at 125.1 g/H (% Control rating) [2, 18]: D

SMILES: COc1ccnc(C(=O)N[C@@H](C)C(=O)O[C@@H](C)[C@H](Oc2ccc(Cl)cc2)c2ccccc2)c1OCOC(C)=O [Cmpd 636]
- SEPTTR 1DP, LV activity at 125.1 g/H (% Control rating) [1, 17]: A (> 80)
- SEPTTR 3DC, LV activity at 125.1 g/H (% Control rating) [1, 18]: A (> 80)
- PUCCRT 1DP, LV activity at 125.1 g/H (% Control rating) [2, 17]: A (> 80)
- PUCCRT 3DC, LV activity at 125.1 g/H (% Control rating) [2, 18]: A (> 80)

SMILES: C=CC[C@@H](Oc1ccccc1)[C@H](C)OC(=O)[C@H](C)NC(=O)c1nccc(OC)c1OCOC(C)=O [Cmpd 698]
- SEPTTR 1DP disease control rating, LV activity at 125.1 g/H [1, 19]: B (≤ 80)
- SEPTTR 3DC disease control rating, LV activity at 125.1 g/H [1, 20]: A (> 80)
- PUCCRT 1DP disease control rating, LV activity at 125.1 g/H [2, 19]: A (> 80)
- PUCCRT 3DC disease control rating, LV activity at 125.1 g/H [2, 20]: A (> 80)

SMILES: COc1ccnc(C(=O)N[C@@H](C)C(=O)O[C@@H](C)[C@@H](CC(C)C)Oc2cc(F)ccc2F)c1O [Cmpd 1049]
- HV activity at 100 ppm SEPTTR 1DP (disease control rating) [1, 13]: A (> 80)
- HV activity at 100 ppm SEPTTR 3DC (disease control rating) [1, 14]: B (≤ 80)
- HV activity at 100 ppm PUCCRT 1DP (disease control rating) [2, 15]: A (> 80)
- HV activity at 100 ppm PUCCRT 3DC (disease control rating) [2, 16]: A (> 80)
